{
  "source": "patent US20150141381A1",
  "about": "“TETRACYCLINE COMPOUNDS HAVING TARGET THERAPEUTIC ACTIVITIES” (Paratek Pharmaceuticals, Inc., priority 2001, published 2015)",
  "key": {"[1]": {"test_system": "MMP-9 production from PMA stimulated THP-1 cells", "experiment": "Assay for MMP-9 Production from PMA Stimulated THP-1 Cells", "assay_type": "cell-based, human", "conditions": "PMA 10 nM, 24 hours, MMP-9 ELISA of conditioned media", "method": "Cultures of human monocyte THP-1 cells were suspended at 1×10^6 cells/mL in RPMI-1640 supplemented with 10% FCS. Cell suspensions (90 μL per well) were seeded into 96-well microtiter plates, and incubated for 30 minutes at 37° C., in 5% CO2 and approximately 95% humidity. Serial dilutions of test drug are prepared at 2× final concentration under sterile conditions and 100 μL was transferred to cell plates. Plates were then incubated as above for 15 minutes. PMA (phorbol-12-myristate-13-acetate) was diluted in media to 20× final concentration. 10 μL of diluted PMA was added to the cell plate, resulting in a final concentration of 10 nM. Plates were then incubated again as above for 24 hours. After 24 hours, 100 μL of conditioned media was tested for MMP-9 protein levels using the Quantikine® Human MMP-9 (total) Immunoassay from R&D Systems. MMP-9 levels were calculated based on a standard curve of purified MMP-9 dilution samples run simultaneously in the ELISA plate. This assay detected both the 92 kDa pro- and 82 kDa active forms of MMP-9."}, "[2]": {"test_system": "nitric oxide synthesis in the J774 cell line", "experiment": "Lipopolysaccharide Stimulation of Macrophage Assay (LSM Assay), inhibition of nitric oxide", "assay_type": "cell-based", "conditions": "for Nitrite: inhibition of nitric oxide synthesis, LPS (100 ng/ml) stimulated J774 cells, nitrite by Greiss Reaction, test compound 56 μg/ml; for Nitrite (inhibition of nitric oxide synthesis): LPS-stimulated J774 cells, Table 3 (Continued) key", "method": "This assay was used to determine the anti-inflammatory effect of tetracycline compounds of the invention by determining the modulation of nitric oxide, interleukin-10 and interleukin-12 synthesis in the J774 cell line, according to a literature procedure (D'Agostino P. et al. Int Immunopharmacol. 2001 September; 1(9-10):1765-76). J774.2 cells were stimulated with 100 ng/ml lipopolysaccharide (LPS). Nitrite, the spontaneous degradation product of nitric oxide, is measured in cell supernatants using the Greiss Reaction. In the experimental conditions, test tetracycline compounds were added 30 minutes prior to LPS stimulation. Cytotoxicity is determined using Resazurin metabolism. On the first day, a 96-well black-walled plate (except for the bottom row) was seeded with 100 μl of a 2.5×10^6 cells/ml suspension and incubated for two hours at 37° C. and 5% CO2. Towards the end of the two hour incubation period, test compounds were prepared at a concentration of 139 μg/ml, in 1.25% DMSO, a 2.5× concentration ready for addition to the cells.\nAt the end of the two hour incubation period, 80 μl of each of the test tetracycline compound solutions were added to the cell plates to make a final concentration of 56 μg/ml. Next, 80 μl of 1.25% DMSO in media was added to the negative control wells. Then, 80 μl of media was added to the positive control wells. The plate was then incubated for half an hour at 37° C., 5% CO2. A 10× working solution of LPS was prepared at a concentration of 1 μg/ml LPS.\nAfter the half hour incubation period, 20 μl of LPS (1 μg/ml) in media was added to half of the test and control wells to give a final concentration of 100 ng/ml. Next, 20 μl of media was added to other half of the wells. The plate was then incubated for 24 hours at 37° C., 5% CO2. 100 μl of the supernatant from each well was collected for nitrite testing. 60 μl of the supernatant was collected for cytokine testing using an enzyme linked immunosorbant assay. The plates are then stored after being covered with sealer and frozen.\nFor the testing toxicity, the remaining media was blotted from the cell plates and 50 μl of Resazurin was added to each well (0.042 mg/ml in PBS w/Ca and Mg). The plate were then incubated for 45 mins, 37° C., 5% CO2, and for 30 minutes at room temperature. The plate was then read for Resazurin fluorescence.\n50 μl/well of sulfanilamide solution (1% sulfanilamide in 5% […]) was added to supernatant plates. The plates were then incubated for 10 minutes at room temperature in the dark. Next, 50 μl/well NED solution (0.1% N-1-naphthylethylene diamine dihydrochloride in water) was added and incubated for 10 minutes at room temperature in the dark. Plates are then read for nitrite measurement and compared to a standard curve generated from the control wells."}, "E. coli mL308 225": {"test_system": "E. coli mL308 225", "experiment": "In Vitro Anti-Bacterial Activity Assay (MIC), gram negative", "assay_type": "cell-based", "conditions": "Escherichia coli, ML308225, 18 h"}, "S. aureus RN450": {"test_system": "S. aureus RN450", "experiment": "In Vitro Anti-Bacterial Activity Assay (MIC), gram positive", "assay_type": "cell-based", "conditions": "Staphylococcus aureus, RN450, 18 h"}, "[3]": {"test_system": "cultured murine cortical neurons", "experiment": "Protection of Cultured Cortical Neurons from Excitotoxic Injury Induced by NMDA (NE Assay)", "assay_type": "cell-based, mice", "conditions": "NMDA 62.5 μM, LDH release 24 hours after starting the exposure", "method": "Primary cortical astrocyte cultures were prepared from one-day old mice, as described in the literature procedure (Tikka, T M et al. J Immunol. 2001 Jun. 15; 166(12):7527-33). After decapitation, the forebrain cortices were collected, cleaned from meninges and, after mincing, dissociated by incubation in papain/Dnase solution followed by trituration. The dissociated cells were suspended in a culture medium consisting of Eagle's minimal essential medium (MEM) with 10% heat-inactivated fetal bovine serum and glutamine (2 mM) and plated in 75 cm^2 cell culture flasks. The medium was replaced with fresh culture medium at day 7. At confluence (day 12-15), the astrocytes were trypsinized and re-plated into 24-well culture vessels. On day 7-8, the neurons were cultured on top of these confluent astrocyte monolayers.\nCortical neuron suspensions were prepared from embryonic day 17 mice. The cortices were collected and meninges removed. The tissue was minced into small pieces and incubated in trypsin solution. The tissue was suspended using a pipette and after centrifugation resuspended and plated on top of astrocyte cultures at a density of 250,000 cells/well to 24-well culture vessel in Eagle's minimal essential medium (MEM, Earle's salts) supplemented with 20 mM glucose, 2 mM glutamine, 10% fetal bovine serum, and 10% heat-inactivated horse serum (HS). Medium was changed after 5 days to MEM containing 20 mM glucose, 2 mM glutamine, and 10% HS, as well as cytosine arabinoside (final concentration 10 μM) to inhibit cell division, and incubated for 2 days. Subsequently, cultures were fed twice weekly with MEM supplemented with 20 mM glucose, 2 mM glutamine and 10% HS, and used at day 12-15.\nOn the day of experiment, the culture medium was replaced with 1) MEM, 2) MEM containing the test tetracycline compounds. Positive control drug included 10 μM MK-801 (Sigma). […] As a control for total neuronal death, a 24 hour incubation with 500 μM NMDA was used (100% cell death control).\nThe cell viability was assessed by measuring lactate dehydrogenase (LDH) release 24 hours after starting the exposure. The LDH release to the culture medium was measured from cell-free medium using Sigma LDH reagent employing kinetic measurement of conversion of lactate to pyruvate using NADH as a cofactor. The rate of increase in absorbance at 340 nm was directly proportional to the activity of LDH in the sample, and was measured with a Labsystems Multiskan ELISA reader."}, "in vitro": {"experiment": "in vitro", "assay_type": "cell-based", "conditions": "African green monkey (COS-1) and Chinese hamster (CHO-K1)", "method": "COS-1 and CHO-K1 cell suspensions were prepared, seeded into 96-well tissue culture treated black-walled microtiter plates (density determined by cell line), and incubated overnight at 37° C., in 5% CO2 and approximately 95% humidity. The following day, serial dilutions of drug were prepared under sterile conditions and transferred to cell plates. Cell/Drug plates were incubated under the above conditions for 24 hours. Following the incubation period, media/drug was aspirated and 50 μl of Resazurin (0.042 mg/ml in PBS w/Ca and Mg) was added. The plates were then incubated under the above conditions for 2 hours and then in the dark at room temperature for an additional 30 minutes. Fluorescence measurements were taken (excitation 535 nm, emission 590 nm)."}, "[4]": {"conditions": "MIC class, Table 3, read-out: Antibiotic Activity Gram −"}, "[5]": {"conditions": "MIC class, Table 3, read-out: Antibiotic Activity Gram +"}, "[6]": {"conditions": "gram negative bacteria, read-out: Antibiotic Activity Gram − (MIC)"}, "[7]": {"conditions": "gram positive bacteria, read-out: Antibiotic Activity Gram + (MIC)"}},
  "note": "Like-named read-outs stand apart in the source and are kept apart here.",
  "data": [
    {"molecule": "CN(C)[C@@H]1C(O)=C(C(N)=O)C(=O)[C@@]2(O)C(O)=C3C(=O)c4c(O)ccc(N5CCOCC5)c4C[C@H]3C[C@@H]12", "note": "[drawing 4289]", "values": [
      {"measurement": "MMP-9 (inhibition of MMP-9 production)", "setting": "[1]", "value": 2}
    ]},
    {"molecule": "CN(C)CCC(=O)c1ccc(O)c2c1C[C@H]1C[C@H]3[C@H](N(C)C)C(O)=C(C(N)=O)C(=O)[C@@]3(O)C(O)=C1C2=O", "note": "[drawing 4022]", "values": [
      {"measurement": "MMP-9 (inhibition of MMP-9 production)", "setting": "[1]", "value": 3}
    ]},
    {"molecule": "CCCCOc1ccc(N(C)C)c2c1C(=O)C1=C(O)[C@]3(O)C(=O)C(C(N)=O)=C(O)[C@@H](N(C)C)[C@@H]3C[C@@H]1C2", "note": "[OM]", "values": [
      {"measurement": "Nitrite", "setting": "[2]", "value": "○"},
      {"measurement": "MIC", "setting": "E. coli mL308 225; [4]", "value": "> 4", "unit": "µg/mL"},
      {"measurement": "MIC", "setting": "S. aureus RN450; [5]", "value": "> 4", "unit": "µg/mL"},
      {"measurement": "neuroprotection (cell viability by LDH release)", "setting": "[3]", "value": "good neuroprotection"}
    ]},
    {"molecule": "C[C@H]1c2ccc(CN3CCC(C(F)(F)F)CC3)c(O)c2C(=O)C2=C(O)[C@]3(O)C(=O)C(C(N)=O)=C(O)[C@@H](N(C)C)[C@@H]3[C@@H](O)[C@@H]21", "values": [
      {"measurement": "Nitrite (inhibition of nitric oxide synthesis)", "setting": "[2]", "value": 3},
      {"measurement": "MIC", "setting": "E. coli mL308 225; [6]", "value": "< 4", "unit": "µg/mL"},
      {"measurement": "MIC", "setting": "S. aureus RN450; [7]", "value": "< 4", "unit": "µg/mL"}
    ]},
    {"molecule": "CN(C)[C@@H]1C(O)=C(C(N)=O)C(=O)[C@@]2(O)C(O)=C3C(=O)c4c(O)ccc(-c5ccc(NC(=O)c6ccno6)cc5)c4C[C@H]3C[C@@H]12", "note": "[drawing 4097]", "values": [
      {"measurement": "MMP-9 (inhibition of MMP-9 production)", "setting": "[1]", "value": 3}
    ]},
    {"molecule": "CCC(=O)O[C@H]1[C@H]2C(=C(O)[C@]3(O)C(=O)C(C(N)=O)=C(O)[C@@H](N(C)C)[C@H]13)C(=O)c1c(ccc(NC(=O)Nc3cccc4ccccc34)c1O)[C@@H]2C", "note": "[Q]", "values": [
      {"measurement": "Nitrite", "setting": "[2]", "value": "○"},
      {"measurement": "MIC", "setting": "E. coli mL308 225; [4]", "value": "> 4", "unit": "µg/mL"},
      {"measurement": "MIC", "setting": "S. aureus RN450; [5]", "value": "< 4", "unit": "µg/mL"},
      {"measurement": "neuroprotection (cell viability by LDH release)", "setting": "[3]", "value": "good neuroprotection"}
    ]},
    {"molecule": "CC1c2cccc(O)c2C(=O)C2=C(O)C3(O)C(=O)C(C(N)=O)=C(O)C(N(C)C)C3C(O)C21", "note": "(centres unmarked) [doxycycline, Doxycycline]", "values": [
      {"measurement": "IC50 at 24 h", "setting": "in vitro", "value": "> 25", "unit": "µg/mL"}
    ]},
    {"molecule": "CN(C)c1cc(-c2ccc(CN3CCCC3)o2)c(O)c2c1C[C@H]1C[C@H]3[C@H](N(C)C)C(O)=C(C(N)=O)C(=O)[C@@]3(O)C(O)=C1C2=O", "note": "[LJ]", "values": [
      {"measurement": "Nitrite", "setting": "[2]", "value": "○"},
      {"measurement": "MIC", "setting": "E. coli mL308 225; [4]", "value": "> 4", "unit": "µg/mL"},
      {"measurement": "MIC", "setting": "S. aureus RN450; [5]", "value": "> 4", "unit": "µg/mL"}
    ]},
    {"molecule": "CN(C)c1ccc(O)c2c1CC1CC3[C@H](N(C)C)C(O)=C(C(N)=O)C(=O)C3(O)C(O)=C1C2=O", "note": "(some centres unmarked) [minocycline, Minocycline]", "values": [
      {"measurement": "IC50 at 24 h", "setting": "in vitro", "value": "> 25", "unit": "µg/mL"}
    ]},
    {"molecule": "CC(=O)Nc1cccc(-c2cc(N(C)C)c3c(c2O)C(=O)C2=C(O)[C@]4(O)C(=O)C(C(N)=O)=C(O)[C@@H](N(C)C)[C@@H]4C[C@@H]2C3)c1", "note": "[G]", "values": [
      {"measurement": "Nitrite", "setting": "[2]", "value": "○"},
      {"measurement": "MIC", "setting": "E. coli mL308 225; [4]", "value": "> 4", "unit": "µg/mL"},
      {"measurement": "MIC", "setting": "S. aureus RN450; [5]", "value": "> 4", "unit": "µg/mL"},
      {"measurement": "neuroprotection (cell viability by LDH release)", "setting": "[3]", "value": "good neuroprotection"}
    ]},
    {"molecule": "CN(C)[C@@H]1C(O)=C(C(N)=O)C(=O)[C@@]2(O)C(O)=C3C(=O)c4c(O)ccc(-c5ccccn5)c4C[C@H]3C[C@@H]12", "values": [
      {"measurement": "Nitrite (inhibition of nitric oxide synthesis)", "setting": "[2]", "value": 3},
      {"measurement": "MIC", "setting": "E. coli mL308 225; [6]", "value": "< 4", "unit": "µg/mL"},
      {"measurement": "MIC", "setting": "S. aureus RN450; [7]", "value": "< 4", "unit": "µg/mL"}
    ]}
  ]
}
